Test [1] deals with T. cruzi epimastigotes. The test can be described thus: microbe, parasite or virus in culture. Format: cell-based. The settings on record: Trypanosoma cruzi.
Test [2] relates to L. donovani promastigotes. The test can be described thus: microbe, parasite or virus in culture. To be noted: for EC50: Leishmania donovani. The format is cell-based, Leishmania donovani.
For test [3], the system named is L. donovani Intramacrophage Amastigotes. The experiment in a line: L. donovani intramacrophage amastigote drug sensitivity. Format: cell-based. The settings on record: Leishmania donovani, read-out: EC50 values, L. donovani Intra-MAC. Here is the method: (§1) T. cruzi and L. donovani intracellular amastigote drug sensitivity assays were conducted as previously described.[42],[43]

The subject of test [4] is T. brucei Bloodstream Forms. The test can be described thus: T. brucei bloodstream form drug sensitivity. Format: cell-based, Trypanosoma brucei. The settings on record: read-out: EC50 values, T. brucei BSF. The protocol: EC50 values for test compounds were determined as previously described.[40]
A further test relates to T. brucei Procyclics. The experiment in a line: T. brucei procyclic drug sensitivity (resazurin). To be noted: read-out: EC50 values, T. brucei Pro. The format is cell-based, Trypanosoma brucei. The protocol:
To examine the effects of test compounds on growth, mid log procyclics were seeded into 96-well plates at a cell density of 5 × 10^5 cells mL^–1. Cells were exposed to test compounds over a range of concentrations (2-fold serial dilutions). Following 72 h of incubation in the presence of drug, 500 μM resazurin was added to each well and fluorescence measured after a further 2 h incubation.
In general terms: Alamar Blue is a resazurin reagent that responds to reducing activity.

Another test relates to HepG2 Cells. The test can be described thus: HepG2 cell potency. The settings on record: Homo sapiens. The format is cell-based. Here is the method:
Table 1 Compound Efficacy: Potencies of Compounds Were Determined against L. donovani Promastigotes (Pro), L. donovani Intramacrophage Amastigotes (Intra-MAC), T. cruzi Epimastigotes (Epi), T. cruzi Intra-Vero Cells (Intra-Vero), T. brucei Bloodstream Forms (BSF), T. brucei Procyclics (Pro), and HepG2 Cells ^a | column: HepG2

The target in test [5] is complex III (cytochrome bc1 complex) (Leishmania donovani, UniProt A5HU08). The test can be described thus: biochemical. Format: biochemical.
In test [6] the target is complex III (cytochrome bc1 complex) (Trypanosoma cruzi, UniProt Q9T479). The test can be described thus: Complex III (cytochrome c reduction) assay, T. cruzi lysate. The format is biochemical. The settings on record: mitochondria-enriched lysate of epimastigotes.
In test [7] the test system is T. cruzi Intra-Vero Cells (intracellular amastigotes). The arrangement: method as in PMID 26186534. The settings on record: reported previously ref 14; cited from earlier work.
In test [8] the test system is T. cruzi epimastigotes. The arrangement: method as in PMID 26186534. The settings on record: reported previously ref 14; read-out: O2 consumption, IC50 values, T. cruzi; cited from earlier work.
Test [9] relates to T. cruzi intracellular amastigotes. The arrangement: method as in PMID 25740547. The settings on record: high-throughput screening hit ref 13; read-out: EC50 against T. cruzi intracellular amastigotes; cited from earlier work.
The subject of test [10] is T. cruzi epimastigotes. The test can be described thus: T. cruzi epimastigote respiration (O2 consumption, MitoXpress-Xtra). Format: cell-based. The settings on record: Trypanosoma cruzi, read-out: O2 consumption, IC50 values, T. cruzi. The protocol: Compounds were predispensed (150 nL well^–1) into 384-well assay plates using an Echo liquid handler (Labcyte Inc.). […] The negative control for this assay was 0.2% DMSO, equivalent to the final concentration of solvent used in drug dilutions.
Our O2 consumption assay was an adaptation of the assay described by Khare and colleagues.[14] Briefly, assay buffer (250 mM sucrose, 15 mM KCl, 5 mM MgCl2, 1 mM EGTA, 30 mM K2HPO4, pH 7.4; 25 μL) was added to 384-well assay plates and incubated at 37 °C for 10 min. Mid log T. cruzi epimastigotes were harvested (1600g for 10 min at 4 °C), washed three times with buffer A (10 mM Tris-HCl, pH 7.4, 230 mM mannitol, 70 mM sucrose, 0.2 mM EDTA, 0.2% bovine serum albumin, 0.5 mM PMSF), and finally resuspended at 1.5 × 10^8 epimastigotes mL^–1. Following resuspension, 3 × 10^6 epimastigotes (20 μL) were dispensed into each well followed by MitoXpress-Xtra probe (15 μL, Agilent) resulting in a final assay volume of 60 μL. Plates were gently shaken, and 30 μL of HS mineral oil (Agilent) was then added to each well to prevent oxygen exchange between the assay buffer and air. Plates were incubated for 90 min at 37 °C, and fluorescence was then measured using an EnVision MultiMode plate reader (PerkinElmer) using excitation and emission wavelengths of 380 and 650 nm, respectively.
Data were normalized to percent of biological response by using positive (i.e., highest response achieved using a chemical tool compound, RactinomycinA) or negative (i.e., lowest response achieved in the absence of any testing compound, RDMSO) controls by using the following equation: [drawing 3] where Rx is the assay response measured in the presence of test compounds.

The subject of test [11] is T. cruzi Intra-Vero Cells (intracellular amastigotes). The experiment in a line: T. cruzi intracellular amastigote (Intra-Vero) drug sensitivity. The format is cell-based. The settings on record: Trypanosoma cruzi; intracellular amastigotes in Vero cells. The protocol: as §1
In test [12] the target is T1, complex III (cytochrome bc1 complex) (Leishmania donovani, UniProt A5HU08).
T1 sequence (A5HU08 1-290): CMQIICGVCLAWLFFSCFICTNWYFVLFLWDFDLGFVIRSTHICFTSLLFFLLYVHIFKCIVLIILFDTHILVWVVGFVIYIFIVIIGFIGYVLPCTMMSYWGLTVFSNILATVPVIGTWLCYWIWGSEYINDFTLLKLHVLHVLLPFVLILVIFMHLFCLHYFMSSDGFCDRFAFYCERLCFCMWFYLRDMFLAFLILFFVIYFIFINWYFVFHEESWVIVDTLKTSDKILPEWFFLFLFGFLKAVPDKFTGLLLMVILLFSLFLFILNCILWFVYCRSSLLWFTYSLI
T1 sequence (A0A3S7WPP0 1-258 partner): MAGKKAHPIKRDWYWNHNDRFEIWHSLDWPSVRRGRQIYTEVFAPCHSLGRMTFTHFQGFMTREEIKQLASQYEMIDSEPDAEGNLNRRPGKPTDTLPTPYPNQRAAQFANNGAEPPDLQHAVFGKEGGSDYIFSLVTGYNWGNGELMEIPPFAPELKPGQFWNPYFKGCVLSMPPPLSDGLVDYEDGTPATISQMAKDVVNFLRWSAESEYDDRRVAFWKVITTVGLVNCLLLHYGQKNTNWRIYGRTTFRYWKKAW
The test can be described thus: biochemical. To be noted: read-out: complex III IC50 values, Compound 1 RES1 lysate; lysate of L. donovani Compound 1 RES1 cell line. The format is biochemical.

In test [13] the test system is L. donovani intracellular amastigotes within macrophages. The test can be described thus: microbe, parasite or virus in culture. To be noted: Leishmania donovani. Format: cell-based.
Test [14] concerns the target T2, complex III (cytochrome bc1 complex) (Leishmania donovani, UniProt A5HU08, F187I).
T2 sequence (A5HU08 1-290 F187I): T1 sequence (A5HU08 1-290)
T2 sequence (A0A3S7WPP0 1-258 partner): T1 sequence (A0A3S7WPP0 1-258 partner)
The experiment in a line: biochemical. The format is biochemical.

Setting [15] is: wild-type epimastigotes, read-out: EC50 values, T. cruzi Epi.
Where [16] appears, read: wild-type promastigotes, read-out: EC50 values, L. donovani Pro.
Setting [17] is: Trypanosoma brucei, bloodstream form.
[18] abbreviates: HepG2 cells, read-out: EC50 values, HepG2.
Setting [19] is: epimastigotes (3 × 10^6), MitoXpress-Xtra probe.
Where [20] appears, read: Macrophage, read-out: Leishmania EC50, Compound 1 RES1.
The mark [21] stands for this setting: Macrophage, read-out: Leishmania EC50, Compound 2 RES1.
The mark [22] stands for this setting: intra-macrophage, WT parasites, read-out: Leishmania EC50, WT.

Where two headings read alike, the source gives them in different places.

One may read the EC50 as the concentration that produces a half-maximal response. What is called IC50 is the concentration that inhibits the measured activity by half.

Regarding `CCc1c(C)c(C#N)c2nc3ccccc3n2c1O` [GNF7686, reference compound], the EC50 is 710 ± 17 nM in the test on T. cruzi epimastigotes [1] (setting [15]); 570 ± 51 nM in test [2] (setting [16]); greater than 50000 nM in [3]; greater than 50000 nM in [4] (setting [17]); 521 nM with T. brucei Procyclics (Trypanosoma brucei, procyclics); 520 ± 13 nM with T. brucei Procyclics (procyclics). The EC50 in the test on HepG2 Cells (setting [18]) is greater than 50000 nM; in test [7] it was 150 ± 30 nM. Also, the “relative sensitivity of L. donovani promastigotes bearing cytochrome b C222F mutation” value in test [2] (compound 1-selected clone, relative to wild-type) is recorded as “markedly cross-resistant”. Also, the “relative sensitivity of L. donovani promastigotes bearing cytochrome b G37A mutation” value in test [2] (compound 1-selected clones, relative to wild-type) was “remaining sensitive”. Further, the IC50 in test [5] is 1600 ± 300 nM; in test [6], 550 ± 97 nM; in the test with T. cruzi epimastigotes [8], 210 nM.
For the molecule `Cc1nc2nc(C)c(Cc3ccc(C(C)C)cc3)c(=O)n2[nH]1` [TCMDC-143087], the EC50 in [9] is 250 nM.
On to `CCCCCC[C@H]1C(=O)O[C@H](C)[C@H](NC(=O)c2cccc(NC=O)c2O)C(=O)O[C@@H](C)[C@@H]1OC(=O)CC(C)C` [antimycin A, reference compound], for which the EC50 was 28 ± 1 nM in the test on T. cruzi epimastigotes [1] (setting [15]); 2 ± 0.1 nM in test [2] (setting [16]); greater than 50000 nM in test [4] (Trypanosoma brucei); 18 ± 0.5 nM in the test on T. brucei Procyclics (Trypanosoma brucei); less than 1000 nM with HepG2 Cells (HepG2, read-out: EC50 values, HepG2). For the same molecule, the IC50 in the test on T. cruzi epimastigotes [10] came to 200 ± 36 nM.
For the molecule `Cc1nn2c(=O)c(Cc3ccc(Cl)cc3)c(C)[nH]c2c1C` [compound 1], the EC50 came to 120 ± 6 nM in the test on T. cruzi epimastigotes [1] (WT epimastigotes, resistance study, read-out: EC50 against WT T. cruzi (Figure 2)); 1400 ± 78 nM with T. cruzi epimastigotes [1] (compound 1-resistant epimastigote clone RES I, read-out: EC50 against T. cruzi RES I); 2500 ± 62 nM in the test with T. cruzi epimastigotes [1] (compound 1-resistant epimastigote clone RES II, read-out: EC50 against T. cruzi RES II); 3800 ± 160 nM with T. cruzi epimastigotes [1] (compound 1-resistant epimastigote clone RES III, read-out: EC50 against T. cruzi RES III); 210 ± 7 nM with T. cruzi epimastigotes [1] (setting [15]); 20 ± 3 nM in test [11]. Moreover, the EC50 was found to be 21.5 ± 0.5 nM in [2] (WT promastigotes, resistance study, read-out: EC50 against WT L. donovani (Figure 2)); 1300 ± 14 nM in [2] (compound 1-resistant promastigote clone RES I, read-out: EC50 against L. donovani RES I); 1300 ± 96 nM in test [2] (compound 1-resistant promastigote clone RES II, read-out: EC50 against L. donovani RES II); 790 ± 27 nM in test [2] (compound 1-resistant promastigote clone RES III, read-out: EC50 against L. donovani RES III); 19 ± 1 nM in test [2] (setting [16]); 1500 ± 400 nM in test [3]. In addition, the EC50 in test [4] (setting [17]) was 6600 ± 470 nM; in [4] (bloodstream form, listed as DDD01542111 (compound 1)) it was 6700 ± 470 nM; with T. brucei Procyclics (Trypanosoma brucei, procyclics) it was 97 ± 3 nM; with HepG2 Cells (setting [18]), greater than 50000 nM; in [13] (setting [20]), 1300 nM; in test [13] (setting [21]) it was 20 nM. In addition, the 50% effective concentration (EC50) in test [13] (setting [22]) amounted to 100 nM. Besides, the concentration for half-maximal inhibition (IC50) in [5] came to 44 ± 7 nM; in test [12], 220 ± 51 nM; in [6], 72 ± 16 nM; in the test with T. cruzi epimastigotes [10] (setting [19]), 150 ± 36 nM.
As for `Cc1cc(C)c2c(N)c(C(=O)N3CCC(C)(C)c4ccccc43)sc2n1` [compound 2], the EC50 amounted to 71 ± 2 nM in the test with T. cruzi epimastigotes [1] (setting [15]); 30 ± 10 nM in test [11]; 24 ± 2 nM in test [2] (setting [16]); 1100 ± 600 nM in test [3]; 8000 ± 970 nM in [4] (setting [17]); 140 ± 14 nM in the test on T. brucei Procyclics (Trypanosoma brucei, procyclics). In addition, the EC50 in the test with HepG2 Cells (setting [18]) is greater than 50000 nM; in test [13] (setting [20]), 30 nM; in test [13] (setting [21]), 4400 nM; in test [13] (setting [22]), 400 nM. The IC50 came out at 99 ± 13 nM in [5], 4200 ± 500 nM in [14], 100 ± 24 nM in test [6] and 510 ± 119 nM with T. cruzi epimastigotes [10] (setting [19]).
As to `CC(=O)Nc1ccc2[nH]c(=O)n([C@H]3CC[C@H](C(C)C)CC3)c(=O)c2c1` [compound 3], the EC50 in the test with T. cruzi epimastigotes [1] (setting [15]) is 320 ± 12 nM; in test [11], 150 ± 46 nM; in test [2] (setting [16]), 1640 ± 54 nM; in test [3], greater than 50000 nM; in test [4] (setting [17]), 8700 ± 470 nM; with T. brucei Procyclics (Trypanosoma brucei, procyclics) it was 88 ± 2 nM. Moreover, the EC50 with HepG2 Cells (setting [18]) worked out at 7300 ± 60 nM. The IC50 was greater than 13000 nM in [5], 86 ± 39 nM in test [6] and 190 ± 38 nM with T. cruzi epimastigotes [10] (setting [19]).

(Values after paper PMC7076694, “The Qi Site of Cytochrome b is a Promiscuous Drug Target in Trypanosoma cruzi and Leishmania donovani” (ACS Infectious Diseases, 2020).)
